The text below walks through data of patent US20190060239A1, “Technology for the Preparation of Microparticles” (Ansun Biopharma, Inc., priority 2007, published 2019).

Data set [1] in a line: Microsphere quality score by light microscopy (scoring system of Table 13). In kind it is physicochemical. Particulars: for Microsphere Quality: compound 2 mg/ml. How it is done: For each of the compounds listed in A-D above, and for DAS181, cocktail solutions containing 2 mg/ml of compound dissolved in an aqueous solvent and various counterions, antisolvents and pH, as listed below, were prepared in a 96-well microtiter plate (0.1 ml cocktail/well) at room temperature. Control solutions contained either solvent or antisolvent alone, with or without the counterion. Cocktails were cooled by placing in a freezer. The chilled plates were transferred onto pre-chilled (−45° C.) shelves of a Millrock Lab Series Lyophilizer, and the vacuum was applied. The frozen cocktail solutions were allowed to lyophilize for 16 hours.
The lyophilized powders from the bottoms of the wells were transferred onto glass slides and analyzed by light microscopy for appearance. The quality of the product microspheres was scored based on the uniformity of the microspheres, the absence of undesirable non-microsphere particles (glass-like crystalline forms), and the absence of aggregates.
Arginine was used as counterion and isopropanol was used as antisolvent. Concentrations of each of the cocktail components—the compound, the counterion and the antisolvent—were varied as shown below in Table 15, and the effect on microsphere quality assessed.
Experiments were performed to evaluate the effect of antisolvent and counterion concentration variation on the formation of microspheres. The peptides leuprolide and somatostatin, and the antibiotics vancomycin and tobramycin, were tested under a variety of conditions for forming microspheres. Samples were analyzed in 96-well plates as described in the previous Examples.
The experiments were performed using PGI2 and an analog of PGI2, Ciprostene, at a concentration of 2 mg/ml. Cocktail solutions were mixed at room temperature, then cooled by placing in a freezer. The chilled plates were transferred onto pre-chilled (−45° C.) shelves of a Millrock Lab Series Lyophilizer, and the vacuum was applied. The frozen cocktail solutions were allowed to lyophilize for 16 hours.
Because the resulting prostaglandin microspheres are hygroscopic, upon microsphere initiation, the humidity was maintained at low levels during the experiments, using a nitrogen gas tank attached to the backfill system on the lyophilizer. Each of the reaction tubes was flushed with N2. In addition, the backfill valve on the lyophilizer was left open to continually flush a low humidity atmosphere over the samples. The microscope used to visualize the resulting microspheres was contained within a plastic bag that was continually purged with dry N2. Sample tubes were placed under the bag to equilibrate for approximately 30 seconds, before opening and spreading onto the glass slide.
The compound/counterion/antisolvent conditions were as follows:
Experiments were performed with 200 μl of each of the above cocktail solutions in a 2 ml lyophilization bottle (first flash freeze condition), and 25 μl of each of the above cocktail solutions in a PCR tube (second flash freeze condition). The samples in the lyophilization bottles took approximately 15 seconds to freeze. The samples in the PCR tubes took approximately 3 seconds or less to freeze.
The cocktails in the 96-well plates were cooled by placing in a freezer. The chilled plates were transferred onto pre-chilled (−45° C.) shelves of a Millrock Lab Series Lyophilizer, and a vacuum was applied. The frozen cocktail solutions were allowed to lyophilize for 16 hours.
The lyophilized powders from the bottoms of the wells were transferred onto glass slides and analyzed by light microscopy for appearance.

For data set [2] the following is noted: cited from earlier work.
A short description of data set [3]: Microsphere formation, size and appearance by light microscopy. The data set is classed as physicochemical.
For data set [4] the following is noted: Bombuwala et. al., Beilstein J. Org. Chem. 2006, 2:13; cited from earlier work.
A short description of data set [5]: Cascade Impaction of vancomycin microspheres, New Generation Impactor. In kind it is physicochemical. How it is done: Vancomycin was dissolved in aqueous buffer at a final concentration of 10 mg/ml. The cocktail contained 5 mM sodium citrate pH 5.0 as counterion and 15% v/v n-propanol as anti-solvent. A 2 ml aliquot of cocktail was frozen in a 10-ml lyophilization vial placed in a −80° C. freezer for 1 hour. The frozen vial was transferred onto a −45° C. lyophilizer shelf and freeze dried for 36 hours.
The microspheres prepared as described in Example 5 were tested by Cascade Impaction using a New Generation Impactor. The deposition of pharmaceuticals in the respiratory tract can be predicted by the aerodynamic behavior of particles (microspheres) on the stages/collection plates of the cascade impactor.
The microspheres (10 mg) were loaded into HPMC (hydroxypropyl methylcellulose) capsule. The capsule was placed into a CycloHaler (PharmaChemie) dry powder inhaler and subjected to cascade impaction. The collection plates of the impactor representing various areas/stages of deposition post-inhalation (trachea, primary and secondary bronchi, terminal bronchi, alveoli, etc.) were coated with silicon spray to prevent bouncing of the microspheres. The microspheres from the stages and collection plates were recovered into a phosphate buffered saline containing 0.1% Tween, and the amount of deposited vancomycin recovered from each stage and collection plate was quantified by measuring absorbance at 280 nm.

For `CCCCC[C@H](O)/C=C/[C@H]1[C@H](O)C[C@]2(C)C/C(=C\CCCC(=O)O)C[C@H]12` [Ciprostene], the “Microsphere Quality” value is reported as 7/8 in data set [1] (2 mM Arginine, pH 9, 20% n-propanol, 0% t-butanol); 6/7 in data set [1] (2 mM Arginine, pH 9, 20% n-propanol, 30% t-butanol); 6/7 in data set [1] (2 mM PEI, pH 10.75, 30% n-propanol, 0% t-butanol); 4/5 in data set [1] (2 mM TEA, pH 11, 20% n-propanol, 0% t-butanol); 8/7 in data set [1] (2 mM TEA, pH 11, 20% n-propanol, 5% t-butanol); 6/7 in data set [1] (2 mM TEA, pH 11, 20% n-propanol, 55% t-butanol). The “Microsphere Quality” value in data set [1] (2 mM TEA, pH 11, 20% n-propanol, 70% t-butanol) is 5/6; in data set [1] (2 mM TEA, pH 11, 30% n-propanol, 0% t-butanol), 3/4. Also, in data set [2], the “solubility in water / aqueous solutions” value was “not highly soluble in aqueous solutions”.

For `CCCCC[C@H](O)/C=C/[C@@H]1[C@H]2C/C(=C/CCCC(=O)O)O[C@H]2C[C@H]1O` [PGI2], in data set [2] (at physiological pH), the API half life result was “on the order of minutes”. In addition, the “solubility in water / aqueous solutions” value in data set [2] is reported as “higher solubility in water”.

On to `CC(=O)O[C@H]1C(=O)[C@@]2(C)[C@H]([C@H](OC(=O)c3ccccc3)[C@]3(O)C[C@H](OC(=O)[C@H](O)[C@@H](NC(=O)c4ccccc4)c4ccccc4)C(C)=C1C3(C)C)[C@]1(OC(C)=O)CO[C@@H]1C[C@@H]2O` [Paclitaxel], for which, in data set [1] (both flash freeze conditions, Paclitaxel/citrate pH 5.0/90% t-butanol), the “appearance after flash freeze” value is “mostly crystalline”. Also, the “organic solvent concentration at which paclitaxel precipitated” value in data set [3] (2 mg/ml paclitaxel, isopropanol, t-butanol or DMSO with 2 mM Na-citrate buffer pH 5.0) is listed as not above 25%. In addition, the “log P (log of the octanol/water partition coefficient)” value in data set [4] is on record as “higher than 3”.

Take `CN[C@H](CC(C)C)C(=O)N[C@H]1C(=O)N[C@@H](CC(N)=O)C(=O)N[C@H]2C(=O)N[C@H]3C(=O)N[C@H](C(=O)N[C@H](C(=O)O)c4cc(O)cc(O)c4-c4cc3ccc4O)[C@H](O)c3ccc(c(Cl)c3)Oc3cc2cc(c3O[C@@H]2O[C@H](CO)[C@@H](O)[C@H](O)[C@H]2O[C@H]2C[C@](C)(N)[C@H](O)[C@H](C)O2)Oc2ccc(cc2Cl)[C@H]1O` [Vancomycin]: the “Microsphere Quality” value in data set [1] (Na-citrate, pH 5.0 7.5 mM, Isopropanol 5%) is recorded as 9/8; in data set [1] (Na-citrate, pH 5.0 […], Isopropanol 5%), 9/8. The microsphere rating in data set [1] (pH 5) is 9/10. Further, the “Percent Deposition of Vancomycin” value in data set [5] (Capsule + device, size cut-off NA) is on record as 37.57%; in data set [5] (Throat, size cut-off >10 microns, oral cavity), 10.48%; in data set [5] (impactor component 1, size cut-off >8.06 microns, Oral cavity/pharynx), 3.33%; in data set [5] (impactor component 2, size cut-off 4.46-8.06 microns, pharynx), 7.71%; in data set [5] (impactor component 3, size cut-off 2.82-4.46 microns, trachea/bronchi), 15.47%; in data set [5] (impactor component 4, size cut-off 1.66-2.82 microns, secondary bronchi), 16.69%. In addition, the “Percent Deposition of Vancomycin” value in data set [5] (impactor component 5, size cut-off 0.94-1.66 microns, terminal bronchi/alveoli) was 6.38%; in data set [5] (impactor component 6, size cut-off 0.55-0.94 microns, alveoli), 1.59%; in data set [5] (impactor component 7, size cut-off 0.34-0.55 microns, alveoli) it was 0.51%; in data set [5] (impactor component 8, size cut-off <0.34 microns, alveoli), 0.27%. Besides, the “geometric size of microspheres” value in data set [3] (10 mg/ml vancomycin, 5 mM sodium citrate pH 5.0, 15% v/v n-propanol, light microscopy) is recorded as 1.0-3.0 microns.
